Assay results from patent US4977151A, “Ethanone oximes and pharmaceutical compositions thereof” (Mitsubishi Kasei Corporation, priority 1987, dated 1990).
Where a name gives a salt, the structure may show the parent alone.

What follows are compounds tested on stress-induced gastric ulcer (assay: Anti-stress ulcer test: inhibition of stress-induced gastric ulcer in rats). Conditions: Rattus norvegicus, po, 15 h, read-out: Inhibition Rate of Stress-Induced Ulcer (%).
Format: in vivo, rat (Douryu male rats)
Method: Anti-stress ulcer tests were conducted as described below. Douryu non-fasted male rats (Shizuoka Laboratory Animal Center, body weight: 220-250 g), five in each group, were immobilized within a stress cage made of wire net and immersed in a water bath at 22 ±1° C. to a depth of xiphoid for loading them with stresses. The rats were clubbed to death after 15 hours and their stomachs were extirpated. After injecting about 15 ml of an aqueous 1% formalin solution into each of the stomachs, they were immersed in an aqueous 1 % formalin solution for about 10 minutes and fixed. After fixation, the stomachs were incised along the greater curvature. The longer diameter of each ulcer generated in the glandular portion was measured under stereomicroscope (X10) and the sum of them was defined to be an ulcer coefficient (mm). Chemicals to be tested were suspended in an aqueous 1 % gum arabic solution and orally administrated at a dose of 2 ml/kg, 30 min before the stress loading. For the control group, an aqueous 1 % gum arabic solution only was administrated, and their ulcer coefficient was compared to that of the group administrated with the tested chemicals to calculate the suppression rate of the tested chemicals. The dosage was 50 mg/kg for each of the compounds. The test compounds in the table are identified in corresponding Examples hereinafter described.
In the case of `CN=C(NC#N)NCCSCc1nc[nH]c1C` [Cimethidine, reference compound], the inhibition in vivo at 200 mg/kg is reported as 69.7%.

Same assay, conditions: Rattus norvegicus; 50 mg/kg, oral, 30 min before stress loading; water immersion stress 22 ±1° C., 15 hours; vs control group; read-out: Inhibition Rate of Stress-Induced Ulcer (%)
Compound `CN1CCN(C/C(=N\O)c2ccc(Sc3ccccc3)cc2)CC1` [Example 1, (Z)-2-(4-methyl-piperazin-1-yl)-1-(4-phenylthio-phenyl)-ethanone oxime hydrochloride] has an inhibition in vivo at 50 mg/kg of 76.9%.
With `CN1CCN(C/C(=N\O)c2ccc(C3CCCCC3)cc2)CC1` [Example 3, (Z)-2-(4-methylpiperazin-1-yl)-1-(4-cyclohexyl-phenyl)-ethanone oxime] the inhibition in vivo at 50 mg/kg was 59.7%.
For `CN1CCN(C/C(=N\O)c2ccc(Cc3ccccc3)cc2)CC1` [Example 5, (Z)-2-(4-methylpiperazin-1-yl)-1-(4-benzyl-phenyl)-ethanone oxime], the inhibition in vivo at 50 mg/kg was 100%.
`CC(=O)N(c1ccccc1)c1ccc(/C(CN2CCN(C)CC2)=N/O)cc1` [Example 6, (Z)-2-(4-methylpiperazin-1-yl)-1-(4-(N-acetyl-N-phenylamino)-phenyl)-ethanone oxime] gave an inhibition in vivo at 50 mg/kg of 85.7%.
In the case of `CN1CCN(C/C(=N\O)c2ccc(N(c3ccccc3)c3ccccc3)cc2)CC1` [Example 7, (Z)-2-(4-methylpiperazin-1-yl)-1-(4-diphenylamino-phenyl)-ethanone oxime], the inhibition in vivo at 50 mg/kg is reported as 74.6%.
For `CN1CCN(C/C(=N\O)c2ccc(CCc3ccccc3)cc2)CC1` [Example 8, (Z)-2-(4-methylpiperazin-1-yl)-1-(4-(2-phenylethyl)-phenyl)-ethanone oxime], the inhibition in vivo at 50 mg/kg was 65.7%.
Compound `O/N=C(\CN1CCCCC1)c1ccc(CCc2ccccc2)cc1` [Example 11, (Z)-2-(piperidin-1-yl)-1-(4-(2-phenylethyl)-phenyl)-ethanone oxime] has an inhibition in vivo at 50 mg/kg of 53%.
`CC(=O)N1c2ccccc2Sc2ccc(/C(CN3CCCCC3)=N/O)cc21` [Example 13] gave an inhibition in vivo at 50 mg/kg of 100%.
`CN1CCN(C/C(=N\O)c2ccc3c(c2)Sc2ccccc2S3)CC1` [Example 14] gave an inhibition in vivo at 50 mg/kg of 51.9%.
For `CC1c2ccccc2CCc2ccc(/C(CN3CCN(C)CC3)=N/O)cc21` (centres unmarked) [Example 18, (Z)-2-(4-methylpiperazin-1-yl)-1-(10,11-dihydro-5H-5-methyldibenzo[a,b]cyclohepten-3-yl)-ethanone oxime], the inhibition in vivo at 50 mg/kg was 100%.
`CCC1c2ccccc2CCc2ccc(/C(CN3CCN(C)CC3)=N/O)cc21` (centres unmarked) [Example 19, (Z)-2-(4-methylpiperazin-1-yl)-1-(10,11-dihydro-5H-5-ethyldibenzo[a,b]cyclohepten-3-yl)-ethanone oxime] showed an inhibition in vivo at 50 mg/kg of 90.7%.
Compound `CN1CCN(C/C(=N\O)c2ccc(S(=O)(=O)c3ccccc3)cc2)CC1` [Example 20, (Z)-2-(4-methylpiperazin-1-yl)-1-(4-phenylsulfonyl-phenyl)-ethanone oxime] has an inhibition in vivo at 50 mg/kg of 80.3%.
With `CN1CCN(C/C(=N\O)c2ccc3c(c2)Nc2ccccc2S3)CC1` [Example 22, (Z)-2-(4-methylpiperazin-1-yl)-1-(4-phenothiazin-2-yl)-ethanone oxime] the inhibition in vivo at 50 mg/kg was 50.6%.
For `CN1CCN(C/C(=N\O)c2ccc(-n3ccnc3)cc2)CC1` [Example 23, (Z)-2-(4-methylpiperazin-1-yl)-1-(4-(imidazol-1-yl)phenyl)-ethanone oxime], the inhibition in vivo at 50 mg/kg was 50.5%.
Compound `O/N=C(\CN1CCCCC1)c1ccc(-n2ccnc2)cc1` [Example 24, (Z)-2-(piperidin-1-yl)-1-(4-(imidazol-1-yl)-phenyl)-ethanone oxime] has an inhibition in vivo at 50 mg/kg of 41.5%.
Compound `CN1CCN(C/C(=N\O)c2ccc(NS(=O)(=O)c3ccccc3)cc2)CC1` [Example 31, (Z)-2-(4-methylpiperazin-1-yl)-1-(4-benzenesulfonyl-amino-phenyl)-ethanone oxime] has an inhibition in vivo at 50 mg/kg of 48.4%.
With `CN1CCN(C/C(=N\O)c2ccc(OCc3ccccc3)cc2)CC1` [Example 33, (Z)-2-(4-methyl-piperazin-1-yl)-1-(4-benzyloxy-phenyl)-ethanone oxime hydrochloride] the inhibition in vivo at 50 mg/kg was 41.4%.
`CCOc1cc(CCc2ccccc2)ccc1/C(CN1CCN(C)CC1)=N/O` [Example 34, (Z)-2-(4-methylpiperazin-1-yl)-1-(2-ethoxy-4-(2-phenylethyl)-phenyl)-ethanone oxime hydrochloride] showed an inhibition in vivo at 50 mg/kg of 100%.
`CC(C)Oc1ccccc1CCc1ccc(/C(CN2CCN(C)CC2)=N/O)cc1` [Example 40, (Z)-2-(4-methylpiperazin-1-yl)-1-(4-(2-(2-isopropoxy-phenyl)-ethyl)-phenyl)-ethanone oxime] gave an inhibition in vivo at 50 mg/kg of 41.9%.
